In patent US20120302614A1, “METHOD FOR IMPROVING CEREBRAL CIRCULATION OR TREATING A CEREBRAL BLOOD FLOW DISORDER” (OSAKA UNIVERSITY, priority 2007, published 2012):

How the values were obtained:
[1] = test system: Aβ injection model (Aβ 1-40 administered intracerebroventricularly); experiment: Morris water maze test in Aβ injection model, Test Example 1; format: in vivo, ddY mouse
Protocol: (§1) The therapeutic effect of olmesartan medoxomil in Aβ injection model and the dose dependency thereof were examined according to the following experimental schedule. [Experimental Schedule]: Prior to the experiment, 8-week old male ddY mice were administered olmesartan medoxomil (0.5 mg/kg/day, 1 mg/kg/day, 3 mg/kg/day or 6 mg/kg/day) or distilled water orally for four weeks (day −28 to −1). Then, Aβ 1-40 was administered to the mice intracerebroventricularly (day 0). (Although Aβ 1-40 was administered into one of the lateral ventricles in WO 2006/059777, Aβ 1-40 was administered in Test Example 1 to both lateral ventricles with an interval of one day between two administrations. Except for this point, Aβ 1-40 administration was performed in the same manner as in WO 2006/059777.) From one week thereafter, a behavioral test to evaluate cognitive function (Morris water maze test; Morris R et al., J Neuroscience Methods 1984, 11, 47-60) was performed (day 7 to 12). As a negative control, mice which had received oral administration of distilled water for four weeks were administered Aβ 40-1 intracerebroventricularly. The administration of olmesartan medoxomil or distilled water was continued until the end of the behavioral test. Measurements were performed as described below. • Hidden platform test: A platform is placed below the water surface of a water pool 150 cm in diameter filled with white water-colored. Mice are released into the water, and the time it takes them to reach the platform is measured. This trial is performed three times a day and for five consecutive days. As they learn, mice become able to reach the platform more quickly day by day. • Visible platform test: Mice are released into the water under such conditions that they can see the platform. The time it takes them to reach the platform is measured. • Probe test: The platform is removed, and mice are released and allowed to swim freely. Those mice with good learning/memory swim in the quadrant where the platform was located searching for the platform. The time they spent in that quadrant is measured. • Annnulus crossing: The number of times mice crossed the platform in the probe test is counted.

[2] = test system: Aβ injection model (Aβ 1-40 administered intracerebroventricularly); experiment: Morris water maze tests in Aβ injection model, Test Example 2; format: in vivo, ddY mouse; details: olmesartan medoxomil 1 mg/kg/day, hydralazine 30 mg/kg/day
Protocol: as §1, with “counted. […] The dose of olmesartan medoxomil was set at a low level of 1 mg/kg/day in view of the experimental results of Test Example 1. […] As behavioral tests to assess cognitive function, Morris water maze tests were performed as in Test Example 1 (hidden platform test, visible platform test and probe test) and, in addition, an open field test was also performed. Further, long-term retention, working memory task and swimming speed were also examined in the Morris water maze tests. Measurements were performed as described below. • Open field test: A cubic box (30×30×30 cm) is used. On each X and Y bank of the open-field area, two infrared beams are attached 2 cm above the floor at a 10 cm interval. The number of successive interceptions by the subject of the two adjoining beams on each bank is counted as locomotion score. • Long-term retention: On day 12 after the completion of the hidden platform test as a water maze test, mice are released into the water and the time it takes them to reach the platform is measured. • Working memory task: The platform is transferred and fixed at a new place. Mice are given four consecutive trials at intervals of as short as 20 seconds, and the time it takes them to reach the platform is measured. […] In order to eliminate this influence, swimming speed is measured.” for “counted.”

[3] = 0.5 mg/kg/day oral, versus Aβ 1-40 administration group
[4] = 1.0 mg/kg/day oral, versus Aβ 1-40 administration group

SMILES: CCCc1nc(C(C)(C)O)c(C(=O)OCc2oc(=O)oc2C)n1Cc1ccc(-c2ccccc2-c2nnn[nH]2)cc1 [olmesartan medoxomil, (5-methyl-2-oxo-1,3-dioxolen-4-yl)methyl 4-(1-hydroxy-1-methylethyl)-2-propyl-1-[4-[2-(tetrazol-5-yl)phenyl]phenyl]methyl-imidazole-5-carboxylate]
- hidden platform test: escape latency (impairment in spatial memory and learning ability) [1, 3]: improved significantly
- probe test: time spent in the target quadrant [1, 3]: significantly improved
- hidden platform test: escape latency (impairment in spatial memory and learning ability) [1, 4]: improved significantly
- number of annulus crossings [1, 4]: significantly improved
- probe test: time spent in the target quadrant [1, 4]: significantly improved
- hidden platform test: escape latency (impairment in spatial memory and learning ability) ([1]; 3.0 mg/kg/day oral, versus Aβ 1-40 administration group): improved significantly
- improvement of impairment in spatial memory and learning evoked by Aβ 1-40 ([1]; high dose groups (3-6 mg/kg/day)): not observed
- improvement of impairment in spatial memory and learning evoked by Aβ 1-40 ([1]; low dose groups (0.5-1 mg/kg/day)): observed
- cognitive impairment (spatial memory and learning) in Morris water maze test, overall ([1]; oral administration for four weeks in advance of Aβ 1-40): significantly improved
- annulus crossings: number of platform crossings compared to Aβ 1-40 administration group ([2]; Aβ 1-40 + drug): increased
- hidden platform test: time to reach the platform ([2]; Aβ 1-40 + drug): shortened through successive sessions
- long-term retention: time to reach the platform compared to Aβ 1-40 administration group ([2]; day 17): shortened
- spatial memory impairment and learning disability evoked by Aβ 1-40 (Morris water test, summary) [2]: significantly improved
- working memory task: time to reach the platform compared to Aβ 1-40 administration group [2]: shortened
